What was measured:
[1] = biological target: T1, CHOK1 cells engineered to overexpress human CCR2 (Homo sapiens, UniProt P41597); experiment: Antibody Dependent Cellular Cytotoxicity (ADCC) Reporter Assay; format: cell-based; details: with anti-cotinine antibody (human IgG1 Fc, S239D/I332E); Jurkat FcγRIIIa NFAT-luciferase reporter cells; average if several runs; read-out: ADCC Reporter Assay pEC50 (converted)
T1 construct: expressed in transfected cells; host or cells: CHOK1
Protocol: An antibody dependent cellular cytoxocity reporter assay was conducted using the following four assay components: (i) ARM compound of Formula (I) targeting CCR2 (concentrations ranging from 1 pM to 10 μM) (ii) anti-cotinine antibody having a heavy chain sequence of SEQ ID NO: 11 and a light chain sequence of SEQ ID NO: 12 (rabbit variable region with human IgG1 Fc domain containing a DE mutation (S239D/I332E)) (concentrations ranging from 0.01 μg/mL to 200 μg/mL); (iii) target cells: CHOK1 cells engineered to overexpress either human CCR2 (typically 1000-20,000 cells per well) and (iv) reporter cells: Jurkat cells engineered to express FcγRIIIa with the reporter gene luciferase under the control of the NFAT promoter (typically 3000-75,000 cells per well). Reagents were combined in a final volume of 20 μL in a 384-well tissue culture treated plate. All four assay components were incubated together for about 12-18 hours. Thereafter, BioGlo Detection reagent (Promega) was added to the wells to lyse the cells and provide a substrate for the luciferase reporter protein. Luminescence signal was measured on a microplate reader and signal:background was calculated by dividing the signal of a test well by the signal obtained when no heterobivalent compound of Formula (I) was added. EC50 calculations were done using Graphpad Prism Software, specifically a nonlinear regression curve fit (Y=Bottom+(Top−Bottom)/(1+10 ^((Log EC50−X)*HillSlope))).
ARMs compounds of Formula (I) of the invention were tested for ADCC activity in the above assay in or more experimental runs and the results are shown in Table 3 below. Potency of the compounds of Formula (I) of the invention is reported as a pEC50 value. The pEC50 value is the negative log of the EC50 value, wherein the EC50 value is the half maximal effective concentration measured in molar (M). For compounds tested in more than one experimental run, the pEC50 value is reported as an average.

[2] = system: CCR2 expressing cells (CD11b+Ly6c+ Hi) in peripheral blood; experiment: In Vivo Depletion Assay (flow cytometry of peripheral blood); set-up: species or system Human CCR2 (hCCR2) knock-in mice; details: hCCR2 knock-in mice; IV 0.1 mpk compound + 10 mpk anti-cotinine antibody (mouse IgG2a Fc); peripheral blood at 48 hr
Protocol: (§1) Human CCR2 (hCCR2) knock-in mice (057 background) were dosed intravenously with a PBS solution containing a compound of Formula (I) to measure depletion of CCR2 expressing cells in peripheral blood. Peripheral blood from IV dosed mice was also analyzed to determine PK properties of the ARM compounds of Formula (I).
Stock solution preparation: Stock solutions of compounds of Formula (I) were prepared at 20 mg/mL and 100 mg/mL in DMSO for PK/PD and dose tolerability studies respectively. Stock solutions were stored at −20° C. until further usage.
Formulations preparation: On the day of experiment, the stock solution of the compound of Formula (I) was removed from storage at −20° C. and thawed at room temperature. Anti-cotinine antibody having a heavy chain sequence of SEQ ID NO: 13 and a light chain sequence of SEQ ID NO: 14 (rabbit variable region sequence with mouse IgG2a Fc domain), if required was removed from storage at −80° C. and thawed at room temperature. Antibody vials were immediately transferred into wet ice after thawing. Compounds of Formula (I) were further diluted in DMSO as per experimental requirements.
Formulation composition: The formulation composition was Saline: DMSO: PBS. Saline was added based on the quantity required and then stock solution of the compound of Formula (I) prepared in DMSO, followed by addition of antibody in PBS. Formulations were incubated at room temperature for 30 minutes before administration to the mouse. DMSO was used at 1 to 2% (v/v) in the final formulation.
(§2) Administration to Animal: Solution formulation of antibody and compound of Formula (I) was injected (bolus injection) to the restrained mouse in the right/left lateral tail vein. Animals were dosed with 0.1 milligram per kilogram (mpk) of the compound of Formula (I) and 10 mpk of the anti-cotinine antibody.
(§3) Terminal bleeding at end of experiment (48 hr): Approximately 250 μL of blood in K2EDTA tube and approximately 250 μL of blood in SST (serum separation tube) was collected from each mouse through retro-orbital bleeding under deep isoflurane anesthesia. After bleeding, each mouse was sacrificed by cervical dislocation. The blood distribution at termination was determined as follows: • For PK: 50 μL of K2EDTA blood was transferred to another tube for PK • Flow cytometry: Remaining blood (˜200 μL) was used for flow cytometry analysis. • For serum collection: serum separator tubes (BD) were centrifuged at 4° C., 5000 rpm for 15 minutes. Approximately 100 μL serum was separated and stored at −80° C. for further usage. • Blood drug concentration: Samples collected at the various timepoints (0.25 hr, 2 hr, 24 and 48 hr) were analyzed to determine blood drug concentration.
CCR2 depletion in peripheral blood was determined by flow cytometry. Briefly, peripheral blood was collected from all animals at the end of study termination and processed. Blood samples were lysed using 1×RBC Lysis buffer and the resulting cell pellet was washed twice in FACS buffer (HBSS containing 5% FBS). Cells were subjected to Fc blocking using mouse Fc block from Biolegend (Trustain, anti-mouse CD16/32, Cat: 101319) to block non-specific binding followed by surface staining for immune markers (CD45, CD3, CD11b, Ly6C, human CCR2). Surface staining was done for 30 minutes in ice and cells were washed twice to remove unbound antibodies. Cells were stained with 7AAD to determine viability and acquired on BD FACSVerse flow cytometer. Appropriate FMO controls and single-color controls were included in the experiment for gating and compensation respectively.
Percent depletion of CD11b+Ly6c+ Hi cells and CCR2 expression for the different treatment groups was determined. The results are shown below in Table 4 and are reported as percent (%) depletion of CCR2 expressing cells.

[3] = Blood drug concentration analysis (LC-MS/MS) in In Vivo Depletion Assay; details: human CCR2 (hCCR2) knock-in, 057 background, mouse, whole blood, hCCR2 knock-in mice, IV 0.1 mpk compound + 10 mpk anti-cotinine antibody, 48 hours post-dose, read-out: Exposure of Compound of Formula (I) 48 hours post-dose
Protocol: as §1, §2
Collection of Blood for PK: Blood was collected at time points 0.25 hour, 2 hours, and […] following administration (50 μL/time point) through retro-orbital bleeding under mild isoflurane anesthesia.
as §3
Drug concentration in blood samples was determined by an LC-MS/MS-based bioanalytical method developed at Syngene. Samples were analyzed on Q-Trap, API-5500 LC-MS/MS system coupled with Exion UHPLC system from SCIEX, USA operated in multiple reaction monitoring mode employing electrospray ionization technique in positive polarity. Analyte and internal standard peaks were resolved on Synergi Polar, 75×2.0 mm, 4μ column using mobile phase 10 mM Ammonium acetate in Milli-Q water as phase A and 0.1% Formic acid in acetonitrile as Phase B. Gradient elution was performed with initial composition 95% Phase A at 0.0 min, holding it for 0.2 minutes, ramping to 5% by 1.0 minute, keeping the same for next 0.5 minutes and coming back to 95% by 1.6 minutes. The total run time was 2 minutes.
Working dilutions for calibration curve and quality control standards were prepared by serially diluting 20 mg/mL stock solution with DMSO. Spiked concentrations for calibration curve in the whole blood ranged from 1 ng/mL to 1000 ng/mL. The working solution of internal standard (Verapamil, 25 ng/mL) was prepared in acetonitrile. 10 μL of the study sample and calibration curve, quality control, and blank whole blood samples were aliquoted in 96 deep well plates for processing. 10 μL of Milli-Q water was added to all the samples and briefly vortexed to initiate complete hemolysis. 10 μL of 20 mM dithiothreitol (OTT) was added to all the samples and incubated for 30 minutes at 37° C. The addition of DTT enhanced the recovery of ARM compounds of Formula (I) from the biological matrix. 300 μL of working internal standard solution was added to all samples except total blank and wash samples, where 300 μL of acetonitrile was added. All the samples were vortex mixed for 5 minutes, followed by centrifugation at 4000 rpm for 10 minutes at 4° C. Supernatants were transferred to the loading plate and injected 3 μL to LC-MS/MS system for analysis. The results are shown below in Table 4 and are reported as compound exposure 48 hours post-dose

In the case of `CO[C@@H]1COCC[C@@H]1N[C@@H]1CC[C@](CCCNC(=O)[C@H]2CC[C@H](NC(=O)CCCO[C@H]3CC[C@@H](OCCNC(=O)[C@H]4CC(=O)N(C)[C@@H]4c4cccnc4)CC3)CC2)(C(=O)N2CCc3ncc(C(F)(F)F)cc3C2)C1` [Example 5, (2S,3S)-N-(2-(((1S,4R)-4-(4-(((1S,4R)-4-((3-((1S,3R)-3-(((3S,4S)-3-Methoxytetrahydro-2H-pyran-4-yl)amino)-1-(3-(trifluoromethyl)-5,6,7,8-tetrahydro-1,6-naphthyridine-6-carbonyl)cyclopentyl)propyl)carbamoyl)cyclohexyl)amino)-4-oxobutoxy)cyclohexyl)oxy)ethyl)-1-methyl-5-oxo-2-(pyridin-3-yl)pyrrolidine-3-carboxamide], the EC50 [1] is reported as 0.158 nM, the “% Depletion of CCR2 expressing cells” value [2] is reported as 98.41% and the concentration at 48 h [3] is reported as 95.4 ng/mL.

In the case of `CO[C@@H]1COCC[C@@H]1N[C@@H]1CC[C@@](C(=O)N2CCc3nc(CCCCNC(=O)[C@H]4CC[C@H](NC(=O)CCCO[C@H]5CC[C@H](OCCNC(=O)[C@H]6CC(=O)N(C)[C@@H]6c6cccnc6)CC5)CC4)c(C(F)(F)F)cc3C2)(C(C)C)C1` [Example 12, (2S,3S)-N-(2-(((1R,4S)-4-(4-(((1r,4R)-4-((4-(6-((1S,3R)-1-Isopropyl-3-(((3S,4S)-3-methoxytetrahydro-2H-pyran-4-yl)amino)cyclopentane-1-carbonyl)-3(trifluoromethyl)-5,6,7,8-tetrahydro-1,6-naphthyridin-2-yl)butyl)carbamoyl)cyclohexyl)amino)-4oxobutoxy)cyclohexyl)oxy)ethyl)-1-methyl-5-oxo-2-(pyridin-3-yl)pyrrolidine-3 carboxamide], the EC50 [1] is reported as 0.631 nM, the “% Depletion of CCR2 expressing cells” value [2] is reported as 95.4% and the concentration at 48 h [3] is reported as 33.3 ng/mL.

Source: patent publication US20250154288A1, “CYTOTOXICITY TARGETING CHIMERAS FOR C-C CHEMOKINE RECEPTOR 2-EXPRESSING CELLS” (GLAXOSMITHKLINE INTELLECTUAL PROPERTY DEVELOPMENT LIMITED, priority 2022, published 2025)
